Some test systems named below: HT29 colon; NCI-H522 lung; T-47D breast; HCC-2998 colon; NCI/ADR-RES ovarian; IGROV1 ovarian; HCT-15 colon; ACHN renal; RPMI-8226 leukemia; OVCAR-8 ovarian.
Test in all cases: growth of human tumour cells (NCI), 48 h

Each structure is given as a SMILES string.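 Each compound was tested at five concentrations against cells in 96-well plates for 48 hours. Here, GI50 denotes the concentration required for 50% inhibition of growth. Definition used: TGI = concentration required for complete inhibition of growth.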

The results in this text go back to PubChem BioAssay (NCI).

On to `Cc1nc2sccn2c1/C=C1/C(=O)Nc2ccccc21`, for which the GI50 in the test with HT29 colon is 2.81 µM; in the test on NCI-H522 lung, 1.85 µM; with T-47D breast, 0.499 µM; with HCC-2998 colon, 1.13 µM; in the test on NCI/ADR-RES ovarian, 3.51 µM; in the test with IGROV1 ovarian, 2.27 µM. For the same compound, the GI50 is 2.46 µM in the test on HCT-15 colon, 8.29 µM with ACHN renal, 7.16 µM in the test on RPMI-8226 leukemia and 12.7 µM in the test on OVCAR-8 ovarian. Moreover, the TGI was over 100 µM with HT29 colon; 22 µM in the test with NCI-H522 lung; over 100 µM in the test with T-47D breast; 27.2 µM in the test with HCC-2998 colon; over 51 µM in the test with NCI/ADR-RES ovarian; over 25.2 µM in the test on IGROV1 ovarian. In addition, the TGI with HCT-15 colon was over 100 µM; in the test on ACHN renal, over 100 µM; with RPMI-8226 leukemia it was over 100 µM; in the test on OVCAR-8 ovarian it was over 66.9 µM.
Turning to `C=C(Cn1c(=O)c2ccccc2c2ccccc21)c1ccc(C(=O)Nc2ccccc2N)cc1`, the GI50 with HT29 colon was 13.3 µM; in the test with NCI-H522 lung, 4.55 µM; with T-47D breast it was 3.86 µM; in the test on HCC-2998 colon, 31.1 µM; in the test on NCI/ADR-RES ovarian it was 3.78 µM; in the test with IGROV1 ovarian, 1.36 µM. The GI50 was 33.5 µM in the test on HCT-15 colon, 43.4 µM in the test with ACHN renal, 0.765 µM in the test on RPMI-8226 leukemia and 11.8 µM in the test on OVCAR-8 ovarian. Also, the TGI in the test with HT29 colon is over 83.8 µM; in the test with NCI-H522 lung it was over 94.4 µM; in the test on T-47D breast, over 69.3 µM; in the test on HCC-2998 colon it was over 100 µM; in the test on NCI/ADR-RES ovarian it was over 57.8 µM; in the test with IGROV1 ovarian, over 29 µM. Further, the TGI in the test on HCT-15 colon is over 100 µM; in the test on ACHN renal, over 100 µM; in the test on RPMI-8226 leukemia, 4.36 µM; in the test on OVCAR-8 ovarian it was over 100 µM.
For `COc1ccc(-c2[nH]ncc2-c2cc3c(c(OC)c2)OCC(=O)N3)cc1`, the GI50 with HT29 colon is 0.378 µM; with NCI-H522 lung it was 0.247 µM; in the test with T-47D breast, 0.406 µM; in the test on HCC-2998 colon, 1.14 µM; in the test on NCI/ADR-RES ovarian, 1.43 µM; with IGROV1 ovarian it was 0.674 µM. In addition, the GI50 in the test on HCT-15 colon is 0.457 µM; in the test with ACHN renal, 0.85 µM; in the test on RPMI-8226 leukemia it was 0.796 µM; in the test on OVCAR-8 ovarian, 1.17 µM. Also, the TGI in the test with HT29 colon is over 100 µM; with NCI-H522 lung, 6.33 µM; in the test on T-47D breast it was 42.9 µM; in the test on HCC-2998 colon, 27 µM; with NCI/ADR-RES ovarian, 29.2 µM; in the test on IGROV1 ovarian, over 100 µM. In addition, the TGI was over 100 µM in the test on HCT-15 colon, over 100 µM with ACHN renal, 18.9 µM with RPMI-8226 leukemia and over 50.1 µM with OVCAR-8 ovarian.
For `Nc1ccn(C2OC(CO)C(O)C2F)c(=O)n1` (stereo not drawn), the GI50 in the test with HT29 colon was over 5000 µM; in the test on NCI-H522 lung, 3990 µM; in the test on T-47D breast it was over 5000 µM; in the test with HCC-2998 colon, over 5000 µM; with IGROV1 ovarian, over 5000 µM; in the test on HCT-15 colon, over 5000 µM. The values for the GI50 in the test on ACHN renal, in the test on RPMI-8226 leukemia and with OVCAR-8 ovarian were over 5000 µM, over 5000 µM and 57.1 µM, respectively. Further, the TGI with HT29 colon, in the test on NCI-H522 lung, with T-47D breast, with HCC-2998 colon, in the test on NCI/ADR-RES ovarian and in the test on IGROV1 ovarian was over 5000 µM each time. For the same compound, the TGI in the test on HCT-15 colon, in the test with ACHN renal and in the test on RPMI-8226 leukemia was over 5000 µM each time.
Regarding `COc1cc(/C(Cl)=C/C=C/C(=O)c2c(C)[n+]([O-])c3ccc(Cl)cc3[n+]2[O-])cc(OC)c1OC`, the GI50 was 2.07 µM in the test with HT29 colon; 1.38 µM with NCI-H522 lung; 10.7 µM with T-47D breast; 16.7 µM in the test on HCC-2998 colon; 1.97 µM with NCI/ADR-RES ovarian; 3.78 µM with IGROV1 ovarian. The GI50 was 7.35 µM in the test on HCT-15 colon, 5.15 µM in the test on ACHN renal, 2.18 µM with RPMI-8226 leukemia and 3.09 µM in the test on OVCAR-8 ovarian. For the same compound, the TGI in the test with HT29 colon was 9.1 µM; in the test on NCI-H522 lung, 4.23 µM; with T-47D breast, over 50 µM; with HCC-2998 colon, over 50 µM; in the test with NCI/ADR-RES ovarian, over 50 µM; in the test with IGROV1 ovarian, 13.2 µM. Further, the TGI in the test on HCT-15 colon was over 50 µM; in the test with ACHN renal, 11.6 µM; in the test with RPMI-8226 leukemia, over 50 µM; with OVCAR-8 ovarian, over 50 µM.
Consider `C(=Nc1ccccc1)C1CCCC[N-]1.C(=Nc1ccccc1)C1CCCC[N-]1.[Cu+2].[O-][Cl+3]([O-])([O-])O` (stereo not drawn), for which the GI50 in the test with HT29 colon is 15.5 µM; in the test on NCI-H522 lung, 13.3 µM; in the test with T-47D breast it was 21.6 µM; in the test with HCC-2998 colon it was 2.4 µM; with NCI/ADR-RES ovarian it was 8.33 µM; with IGROV1 ovarian it was 14 µM. Also, the GI50 was 0.529 µM in the test on HCT-15 colon, 1.45 µM in the test with ACHN renal, 3.52 µM with RPMI-8226 leukemia and over 39.7 µM with OVCAR-8 ovarian. The TGI with HT29 colon is 30.8 µM; in the test on NCI-H522 lung, 52.1 µM; with T-47D breast it was over 100 µM; in the test with HCC-2998 colon, 24.4 µM; in the test with NCI/ADR-RES ovarian it was 29.7 µM; in the test on IGROV1 ovarian, 47.8 µM. Besides, the TGI is 9.76 µM with HCT-15 colon, 12.3 µM in the test with ACHN renal, 10.9 µM in the test on RPMI-8226 leukemia and over 95.2 µM in the test on OVCAR-8 ovarian.
With `Nc1ncnc2c1ncn2C1OC(COP(=O)(O)CP(=O)(O)O)C(O)C1O` (stereo not drawn), the TGI with HT29 colon, in the test with NCI-H522 lung, in the test on T-47D breast, with HCC-2998 colon, in the test with NCI/ADR-RES ovarian and in the test with IGROV1 ovarian was over 100 µM throughout. Further, the TGI in the test with HCT-15 colon, with ACHN renal, with RPMI-8226 leukemia and in the test with OVCAR-8 ovarian was over 100 µM each time.
Take `O=C(/C=C/c1ccc(B(O)O)cc1)/C=C/c1ccc(B(O)O)cc1`: the GI50 was 1.82 µM in the test with HT29 colon; 4.07 µM in the test on NCI-H522 lung; 2.7 µM with T-47D breast; 1.95 µM in the test with HCC-2998 colon; 17 µM in the test with NCI/ADR-RES ovarian; 3.46 µM in the test on IGROV1 ovarian. In addition, the GI50 was 2.67 µM in the test with HCT-15 colon, 3.66 µM in the test with ACHN renal, 2.51 µM in the test on RPMI-8226 leukemia and 9.39 µM with OVCAR-8 ovarian. In addition, the TGI in the test with HT29 colon was 3.95 µM; in the test with NCI-H522 lung, 15.7 µM; in the test with T-47D breast, 12.3 µM; with HCC-2998 colon, 3.61 µM; in the test on NCI/ADR-RES ovarian, 62.9 µM; in the test on IGROV1 ovarian, 13.3 µM. In addition, the TGI with HCT-15 colon stood at 10.7 µM; with ACHN renal it was 13.8 µM; in the test with RPMI-8226 leukemia, 8.21 µM; in the test with OVCAR-8 ovarian it was 22 µM.
